Calls of active or inactive are those of the source. No cut-off for these calls is given here.
Experiments:
[1] = system: Rattus norvegicus; test: Antihypertensive activity against MCT-induced Wistar albino rat assessed as reduction in HIF1alpha level at 150 mg/kg, sc by ELISA analysis (reference value: 312.00 +/- 1.36 ng/ml); type: functional
[2] = system: Rattus norvegicus; test: Antioxidant activity against MCT-induced Wistar albino rat assessed as reduction in TBARS level at 150 mg/kg, sc by biochemical analysis (reference value: 123.03 +/- 0.47 micromol); type: functional
[3] = system: Rattus norvegicus; test: Antioxidant activity against MCT-induced Wistar albino rat assessed as increase in SOD level at 150 mg/kg, sc by biochemical analysis (reference value: 19.15 +/- 0.21 U/mg); type: functional
[4] = system: Rattus norvegicus; test: Antihypertensive activity against MCT-induced Wistar albino rat assessed as decrease in lung mPGES-1 expression at 300 mg/kg, sc by Western blotting analysis; type: functional, organism-based
[5] = system: Rattus norvegicus; test: Antioxidant activity against MCT-induced Wistar albino rat assessed as increase in SOD level at 300 mg/kg, sc by biochemical analysis (reference value: 19.15 +/- 0.21 U/mg); type: functional
[6] = system: Rattus norvegicus; test: Antihypertensive activity against MCT-induced Wistar albino rat assessed as decrease in mPGES-1 expression by measuring fold change at 300 mg/kg, sc by quantitative RT-PCR analysis (reference value: 10.99); type: functional
[7] = system: Rattus norvegicus; test: Antihypertensive activity against MCT-induced Wistar albino rat assessed as decrease in ET-alpha expression by measuring fold change at 300 mg/kg, sc by quantitative RT-PCR analysis (reference value: 32.14); type: functional
[8] = system: Rattus norvegicus; test: Antihypertensive activity against MCT-induced Wistar albino rat PAH model assessed as decreased right ventricular systolic pressure at 300 mg/kg, sc administered for 21 days (reference value: 55.19 +/- 0.026 mmHg); type: functional; details: time 21 day
[9] = system: Rattus norvegicus; test: Antihypertensive activity against MCT-induced Wistar albino rat assessed as reduction in ANP level at 300 mg/kg, sc by ELISA analysis (reference value: 358.00 +/- 1.24 pg/ml); type: functional
[10] = system: Rattus norvegicus; test: Antihypertensive activity against MCT-induced Wistar albino rat assessed as increase in eNOS expression by measuring fold change at 300 mg/kg, sc by quantitative RT-PCR analysis (reference value: 0.002); type: functional
[11] = system: Rattus norvegicus; test: Antihypertensive activity against MCT-induced Wistar albino rat PAH model assessed as decreased mean pulmonary arterial pressure at 150 mg/kg, sc administered for 21 days (reference value: 19.18 +/- 0.360 mmHg); type: functional; details: time 21 day
[12] = system: Rattus norvegicus; test: Antihypertensive activity against MCT-induced Wistar albino rat assessed as reduction in HIF1alpha level at 300 mg/kg, sc by ELISA analysis (reference value: 312.00 +/- 1.36 ng/ml); type: functional
[13] = system: Rattus norvegicus; test: Antihypertensive activity against MCT-induced Wistar albino rat assessed as decrease in COX-2 expression by measuring fold change at 300 mg/kg, sc by quantitative RT-PCR analysis (reference value: 32.22); type: functional
[14] = system: Rattus norvegicus; test: Antihypertensive activity against MCT-induced Wistar albino rat assessed as reduction in ANP level at 150 mg/kg, sc by ELISA analysis (reference value: 358.00 +/- 1.24 pg/ml); type: functional
[15] = system: Rattus norvegicus; test: Antihypertensive activity against MCT-induced Wistar albino rat assessed as increase in SGC expression by measuring fold change at 300 mg/kg, sc by quantitative RT-PCR analysis (reference value: 0.01); type: functional
[16] = system: Rattus norvegicus; test: Antioxidant activity against MCT-induced Wistar albino rat assessed as increase in GSH level at 300 mg/kg, sc by biochemical analysis (reference value: 12.21 +/- 0.34 U/mg); type: functional
[17] = system: Rattus norvegicus; test: Antihypertensive activity against MCT-induced Wistar albino rat PAH model assessed as decreased right ventricular systolic pressure at 150 mg/kg, sc administered for 21 days (reference value: 55.19 +/- 0.026 mmHg); type: functional; details: time 21 day
[18] = system: Rattus norvegicus; test: Antioxidant activity against MCT-induced Wistar albino rat assessed as increase in catalase level at 150 mg/kg, sc by biochemical analysis (reference value: 0.26 +/- 0.05 U/mg); type: functional
[19] = system: Rattus norvegicus; test: Antihypertensive activity against MCT-induced Wistar albino rat assessed as increase in lung SGC expression at 300 mg/kg, sc by Western blotting analysis; type: functional, organism-based
[20] = system: Rattus norvegicus; test: Antihypertensive activity against MCT-induced Wistar albino rat PAH model assessed as reduction in peribronchial and interstitial inflammatory infiltrates and inter-alveolar vascular spaces at 150 to 300 mg/kg, sc by hematoxylin and eosin staining based microscopic analysis; type: functional, organism-based; details: dose 150-300 mg/kg
[21] = target: T1, Endothelin-1 receptor (Homo sapiens, UniProt P25101); test: Antagonist activity against human ET-1 by ELISA analysis; type: functional
T1 sequence (P25101 whole entry): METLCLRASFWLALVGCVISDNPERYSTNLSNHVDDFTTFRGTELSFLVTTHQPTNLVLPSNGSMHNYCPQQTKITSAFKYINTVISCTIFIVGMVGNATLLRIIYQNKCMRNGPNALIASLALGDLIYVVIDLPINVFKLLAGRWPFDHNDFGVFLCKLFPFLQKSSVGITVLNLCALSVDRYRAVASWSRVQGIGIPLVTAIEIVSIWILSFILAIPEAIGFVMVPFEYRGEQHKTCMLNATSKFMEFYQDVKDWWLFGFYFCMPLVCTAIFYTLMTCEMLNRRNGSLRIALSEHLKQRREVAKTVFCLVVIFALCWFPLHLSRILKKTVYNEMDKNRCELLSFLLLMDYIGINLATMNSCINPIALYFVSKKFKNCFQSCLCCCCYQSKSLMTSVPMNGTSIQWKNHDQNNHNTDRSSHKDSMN

[22] = system: Rattus norvegicus; test: Antioxidant activity against MCT-induced Wistar albino rat assessed as increase in catalase level at 300 mg/kg, sc by biochemical analysis (reference value: 0.26 +/- 0.05 U/mg); type: functional
[23] = system: Rattus norvegicus; test: Antihypertensive activity against MCT-induced Wistar albino rat assessed as decrease in ET-beta expression by measuring fold change at 300 mg/kg, sc by quantitative RT-PCR analysis (reference value: 15.17); type: functional
[24] = system: Rattus norvegicus; test: Antihypertensive activity against MCT-induced Wistar albino rat assessed as reduction in TNNI3 level at 150 mg/kg, sc by ELISA analysis (reference value: 3.42 +/- 0.12 pg/ml); type: functional
[25] = system: Rattus norvegicus; test: Antioxidant activity against MCT-induced Wistar albino rat assessed as reduction in TBARS level at 300 mg/kg, sc by biochemical analysis (reference value: 123.03 +/- 0.47 micromol); type: functional
[26] = system: Rattus norvegicus; test: Antihypertensive activity against MCT-induced Wistar albino rat PAH model assessed as decreased right ventricular hypertrophy at 300 mg/kg, sc administered for 21 days (reference value: 0.42 +/- 0.020 […]); type: functional; details: time 21 day
[27] = system: Rattus norvegicus; test: Antihypertensive activity against MCT-induced Wistar albino rat assessed as increase in lung eNOS expression at 300 mg/kg, sc by Western blotting analysis; type: functional, organism-based
[28] = system: Rattus norvegicus; test: Antihypertensive activity against MCT-induced Wistar albino rat assessed as decrease in lung COX-2 expression at 300 mg/kg, sc by Western blotting analysis; type: functional, organism-based
[29] = system: Rattus norvegicus; test: Antihypertensive activity against MCT-induced Wistar albino rat PAH model assessed as decreased mean pulmonary arterial pressure at 300 mg/kg, sc administered for 21 days (reference value: 19.18 +/- 0.360 mmHg); type: functional; details: time 21 day
[30] = system: Rattus norvegicus; test: Antihypertensive activity against MCT-induced Wistar albino rat PAH model assessed as decreased right ventricular hypertrophy at 150 mg/kg, sc administered for 21 days (reference value: 0.42 +/- 0.020 […]); type: functional; details: time 21 day
[31] = system: Rattus norvegicus; test: Antihypertensive activity against MCT-induced Wistar albino rat assessed as reduction in TNNI3 level at 300 mg/kg, sc by ELISA analysis (reference value: 3.42 +/- 0.12 pg/ml); type: functional
[32] = system: Rattus norvegicus; test: Antioxidant activity against MCT-induced Wistar albino rat assessed as increase in GSH level at 150 mg/kg, sc by biochemical analysis (reference value: 12.21 +/- 0.34 U/mg); type: functional
[33] = system: Rattus norvegicus; test: Antihypertensive activity against MCT-induced Wistar albino rat assessed as reduction of arterial wall thickening in peribronchial arteries at 150 to 300 mg/kg, sc by hematoxylin and eosin staining based microscopic analysis; type: functional, organism-based; details: dose 150-300 mg/kg
[34] = system: Rattus norvegicus; test: Antihypertensive activity against MCT-induced Wistar albino rat assessed as presence of lung vasculitis at 150 to 300 mg/kg, sc by hematoxylin and eosin staining based microscopic analysis; type: functional, organism-based; details: dose 150-300 mg/kg

COc1ccccc1Oc1c(NS(=O)(=O)c2ccccc2)nc(-c2ncccn2)nc1OCC1CCCN1C (stereo unspecified)
Activity [1]: 158.12 ng/mL
Activity [2]: 88.12 µmol
Activity [3]: 31.12 U/mg
Activity [4]: Active
Activity [5]: 40.21 U/mg
fold change (FC) [6]: 1.07
fold change (FC) [7]: 1.38
Activity [8]: 23.16 mmHg
Activity [9]: 238.08 pg/mL
fold change (FC) [10]: 0.37
Activity [11]: 13.11 mmHg
Activity [12]: 132.21 ng/mL
fold change (FC) [13]: 2.91
Activity [14]: 252.13 pg/mL
fold change (FC) [15]: 0.18
Activity [16]: 22.72 U/mg
Activity [17]: 29.08 mmHg
Activity [18]: 0.81 U/mg
Activity [19]: Active
Activity [20]: Active
IC50 [21]: 0.22 nM
Activity [22]: 1.05 U/mg
fold change (FC) [23]: 1.04
Activity [24]: 2.32 pg/mL
Activity [25]: 73.12 µmol
Activity [26]: 0.24
Activity [27]: Active
Activity [28]: Active
Activity [29]: 10.12 mmHg
Activity [30]: 0.27
Activity [31]: 2.1 pg/mL
Activity [32]: 17.27 U/mg

COc1ccccc1Oc1c(NS(C)(=O)=O)nc(-c2ncccn2)nc1OCCC(C)C
Activity [1]: 139 ng/mL
Activity [2]: 78.12 µmol
Activity [3]: 38.21 U/mg
Activity [4]: Active
Activity [5]: 46.01 U/mg
fold change (FC) [6]: 0.81
fold change (FC) [7]: 0.44
Activity [8]: 21.11 mmHg
Activity [9]: 224 pg/mL
fold change (FC) [10]: 0.63
Activity [11]: 11.18 mmHg
Activity [12]: 121 ng/mL
fold change (FC) [13]: 1.81
Activity [14]: 241.2 pg/mL
fold change (FC) [15]: 0.49
Activity [16]: 28.09 U/mg
Activity [17]: 26.82 mmHg
Activity [18]: 1.09 U/mg
Activity [19]: Active
IC50 [21]: 0.18 nM
Activity [22]: 1.21 U/mg
fold change (FC) [23]: 0.34
Activity [24]: 1.94 pg/mL
Activity [25]: 69.82 µmol
Activity [26]: 0.23
Activity [27]: Active
Activity [28]: Active
Activity [29]: 9.02 mmHg
Activity [30]: 0.26
Activity [33]: Active
Activity [31]: 1.84 pg/mL
Activity [32]: 21.92 U/mg

CC/C=C/CCOc1nc(-c2ncccn2)nc(NS(C)(=O)=O)c1Oc1ccccc1OC
Activity [1]: 163.12 ng/mL
Activity [2]: 102.23 µmol
Activity [3]: 25.43 U/mg
Activity [4]: Active
Activity [5]: 32.14 U/mg
fold change (FC) [6]: 1.19
fold change (FC) [7]: 0.62
Activity [8]: 27.12 mmHg
Activity [34]: Active
Activity [9]: 245 pg/mL
fold change (FC) [10]: 0.15
Activity [11]: 17.16 mmHg
Activity [12]: 146 ng/mL
fold change (FC) [13]: 2.43
Activity [14]: 261.12 pg/mL
fold change (FC) [15]: 0.38
Activity [16]: 19.81 U/mg
Activity [17]: 33.18 mmHg
Activity [18]: 0.68 U/mg
Activity [19]: Active
IC50 [21]: 0.26 nM
Activity [22]: 0.95 U/mg
fold change (FC) [23]: 3.24
Activity [24]: 2.67 pg/mL
Activity [25]: 89 µmol
Activity [26]: 0.25
Activity [27]: Active
Activity [28]: Active
Activity [29]: 13.93 mmHg
Activity [30]: 0.29
Activity [31]: 2.36 pg/mL
Activity [32]: 14.02 U/mg
